≈ marks a conversion by molar mass, not a printed value.
Assay: Solubility in ethanol, DMSO and ethanol-Tween 80
Assay type: physicochemical
Details: organic solvent or mixture
Procedure: After solution in ethanol or DMSO, or chemically similar solvents, NVX-207 or a related compound may be formulated with co-solvents such as Cremophor EL® and/or Tween® 80, in a similar manner described for taxanes. For example, the formulation approach for paclitaxel (TAXOL®; Bristol-Myers Squibb) was to use 50% Cremophor EL® and 50% ethanol. The pharmaceutical formulation of paclitaxel contains 30 mg paclitaxel dissolved in 5 ml of this (1:1, v/v) mixture. These and equivalent formulations allow for the application of NVX-207 in sufficiently high concentrations not only for topical, but also for intralesional and systemic (intravenous infusion) use. Solubility of NVX-207 in ethanol was determined to be at least 300 mg/ml and reached 250 mg/ml in DMSO. […] The solubility of NVX-207 in ethanol-Tween® 80 was evaluated. Two-hundred mg of NVX-207 was dissolved in 1 ml ethanol. […] Then an equal volume of Tween® 80 was added, to achieve a stock solution of 100 mg/ml of NVX-207. The stock solution was clear and yellow. Each stock solution was diluted first 1:1 (50 mg/ml NVX-207), then 1:5 (20 mg/ml NVX-207) and finally 1:10 (10 mg/ml NVX-207) with water. […] NVX-207 therefore has, apart from its higher activity, significant advantages over betulinic acid, that include higher activity, better solubility in pharmaceutically suitable solvents, and better handling.

Question: With C=C(C)[C@@H]1CC[C@]2(C(=O)O)CC[C@]3(C)[C@H](CC[C@@H]4[C@@]5(C)CC[C@H](O)C(C)(C)[C@@H]5CC[C@]43C)[C@@H]12 [betulinic acid, reference compound] as the molecule, how does the solubility (Solubility in DMSO) read?
Answer: 10000 µg/mL (≈ 21.9 mM)

Question: And the solubility (Solubility in ethanol)?
Answer: < 1000 µg/mL

Reference: patent publication US20150306110A1, “COMPOSITIONS AND METHODS FOR TREATMENT OF INFLAMMATION AND HYPERKERATOTIC LESIONS” (Novelix Pharmaceuticals, Inc., priority 2008, published 2015)
